What was measured:
[1] = In vivo percentage antigoiter activity of compound was determined; format: functional, Rattus norvegicus; set-up: concentration or dose not given beside the values
[2] = In vitro percentage thymocyte activity of compound was determined in rat; format: functional; set-up: concentration or dose not given beside the values
[3] = target: T1, Thyroxine-binding globulin (Homo sapiens) (UniProt P05543); experiment: Percentage thyroxine-binding globulin (TBG) binding activity of compound was determined in human serum; format: cell-free
T1 sequence (whole entry): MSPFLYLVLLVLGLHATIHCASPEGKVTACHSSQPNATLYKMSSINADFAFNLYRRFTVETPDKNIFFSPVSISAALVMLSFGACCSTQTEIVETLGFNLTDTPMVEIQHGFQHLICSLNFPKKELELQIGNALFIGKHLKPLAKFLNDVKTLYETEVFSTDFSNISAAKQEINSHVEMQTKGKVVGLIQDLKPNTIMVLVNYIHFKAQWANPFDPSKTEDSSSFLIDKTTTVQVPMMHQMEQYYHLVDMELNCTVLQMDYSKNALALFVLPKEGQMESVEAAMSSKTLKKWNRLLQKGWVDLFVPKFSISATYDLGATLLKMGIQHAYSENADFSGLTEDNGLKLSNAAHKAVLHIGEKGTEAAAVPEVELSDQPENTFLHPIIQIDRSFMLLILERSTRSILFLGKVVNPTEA

Rattus norvegicus = species on record: Rattus norvegicus; experiment: In vitro binding affinity of compound to the rat Hepatic nuclear protein receptors was determined
[4] = target: T1, Thyroxine-binding globulin (Homo sapiens); experiment: Percentage thyroxine-binding globulin binding activity of compound was determined in human serum; format: cell-free

SMILES	Activity [1] [%]	Activity [2] [%]	Activity [3] [%]	Activity (Rattus norvegicus) [%]	Activity [4] [%]
Cc1cc(Oc2c(C)cc(CC(N)C(=O)O)cc2C)cc(C)c1O (centres undefined)	0.54	23	0	0.1	–
N[C@@H](Cc1cc(I)c(Oc2ccc(O)c(I)c2)c(I)c1)C(=O)O [LIOTHYRONINE]	100	100	9	–	–
Cc1cc(Oc2c(C)cc(CC(N)C(=O)O)cc2C)ccc1O (centres undefined)	0.36	23	0	0.1	–
N[C@@H](Cc1cc(I)c(Oc2cc(I)c(O)c(I)c2)c(I)c1)C(=O)O [LEVOTHYROXINE]	18	30	–	12.5	100
Cc1cc(CC(N)C(=O)O)cc(C)c1Oc1ccc(O)c(C(C)C)c1 (centres undefined)	3.6	48	0.05	0.7	–

Source: ChEMBL document CHEMBL1121443, “Role of iodine in thyroid hormones: molecular conformation of a halogen-free hormone analogue” (1980)
